Data set [1] concerns the target T1, trypsin-like activity of purified rabbit muscle 20S proteasome (Oryctolagus cuniculus, UniProt G1SWK8).
T1 sequence (G1SWK8 1-271): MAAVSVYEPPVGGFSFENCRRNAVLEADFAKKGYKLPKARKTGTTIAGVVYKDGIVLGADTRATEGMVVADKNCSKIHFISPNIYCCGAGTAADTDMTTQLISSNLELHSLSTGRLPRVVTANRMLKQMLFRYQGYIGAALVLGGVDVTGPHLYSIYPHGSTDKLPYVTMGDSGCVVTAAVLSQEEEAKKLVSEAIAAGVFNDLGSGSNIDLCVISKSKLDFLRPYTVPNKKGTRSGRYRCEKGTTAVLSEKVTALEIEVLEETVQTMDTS
Briefly: biochemical.

For data set [2], the target named is T2, caspase-like activity of purified rabbit muscle 20S proteasome (Oryctolagus cuniculus, UniProt A0A5F9DQW2).
T2 sequence (A0A5F9DQW2 1-212): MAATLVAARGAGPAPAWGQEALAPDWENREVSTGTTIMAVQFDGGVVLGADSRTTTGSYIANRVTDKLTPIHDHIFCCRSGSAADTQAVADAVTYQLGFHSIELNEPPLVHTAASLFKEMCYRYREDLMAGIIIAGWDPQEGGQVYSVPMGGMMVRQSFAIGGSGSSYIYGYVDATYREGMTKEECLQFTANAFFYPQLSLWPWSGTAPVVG
Put plainly: In vitro inhibition of 20S proteasome caspase-like activity (Z-LLE-AMC).

The target in data set [3] is T1, trypsin-like activity of purified rabbit muscle 20S proteasome. Briefly: In vitro inhibition of 20S proteasome trypsin-like activity (Boc-LRR-AMC). The following applies: under the conditions tested.
Data set [4] concerns the target T3, chymotrypsin-like activity of purified rabbit muscle 20S proteasome (Oryctolagus cuniculus, UniProt G1T4Q9).
T3 sequence (G1T4Q9 1-263): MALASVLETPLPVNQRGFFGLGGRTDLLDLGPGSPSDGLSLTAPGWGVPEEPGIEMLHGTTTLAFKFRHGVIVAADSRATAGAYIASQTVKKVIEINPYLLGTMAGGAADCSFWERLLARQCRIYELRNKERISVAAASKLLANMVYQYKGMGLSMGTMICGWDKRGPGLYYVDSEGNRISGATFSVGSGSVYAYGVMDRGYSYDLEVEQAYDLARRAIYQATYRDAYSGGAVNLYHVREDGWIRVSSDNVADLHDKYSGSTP
Briefly: In vitro inhibition of 20S proteasome chymotrypsin-like activity (suc-LLVY-AMC).

The test system of data set [5] is NF-κB. Briefly: NF-κB-mediated luciferase reporter gene assay, HEK293 NF-κB/Luc cells, TNF-α stimulation. Format: cell-based, human. The note with it: for EC50: 1 hr pretreatment, TNF-α 6 hr; for effect on luciferase activity upon TNF-α stimulation, in words: pretreatment of NF-κB/Luc 293 cells. The method, then:
The HEK293 NF-κB/luciferase reporter cell line is a derivative of the human embryonic kidney cell line (ATCC; CRL-1573) and carries a luciferase reporter gene under the regulation of 5× NF-κB binding sites. […] When performing the luciferase assay, the DMEM basal medium was replaced with phenol-red free DMEM basal medium and the G418 was omitted.
For NF-κB-mediated luciferase assays, HEK293 NF-κB/luciferase cells were seeded at 1.5×10^4 cells/well in 90 μl phenol-red free DMEM complete medium into Corning 3917 white opaque-bottom tissue culture plates. For Formula II-2, Formula II-4, Formula II-5A, and Formula II-18, a 400 μM starting dilution was made in 100% DMSO and this dilution was used to generate a 8-point half log dilution series. […] For Formula II-20, a 2.5 mM or 8 mM starting solution was made in 100% DMSO and the final test concentrations ranged from 6.3 μM to 2.0 nM or 20 μM to 6.3 nM, respectively. The plates were returned to the incubator for 1 hour. After 1 hr pretreatment, 10 μl of a 50 ng/ml TNF-α solution, prepared in the phenol-red free DMEM medium was added, and the plates were incubated for an additional 6 hr.
At the end of the TNF-α stimulation, 100 μl of Steady Lite HTS luciferase reagent (Packard Bioscience) was added to each well and the plates were left undisturbed for 10 min at room temperature before measuring the luciferase activity. The relative luciferase units (RLU) were measured by using a Fusion microplate fluorometer (Packard Bioscience).
(In a reporter assay the amount or activity of a reporter protein is the signal.)

Data set [6] deals with RPMI 8226. Put plainly: Cell growth inhibition (resazurin), RPMI 8226. The note with it: for EC50: 48 hours drug exposure, mean ± SD where n≥3; for cytotoxicity against RPMI 8226, in words: from EC50 values. In general terms: The colour change of resazurin is a common sign of viable cells or microbes.
The test system of data set [7] is U266. Put plainly: Cell growth inhibition (resazurin), U266. The note with it: for EC50: 48 hours drug exposure.
[8] abbreviates: EC50 Caspase-like, Table 6, values in μM.
Where [9] appears, read: EC50 Chymotrypsin-like, Table 6, values in μM.
Where [10] appears, read: EC50 values, chymotrypsin-like activity, range or bound stated in text, summary of Table 6.
[11] abbreviates: Homo sapiens, RPMI-8226, 48 h, read-out: RPMI 8226 EC50, Table 2.
Where [12] appears, read: read-out: RPMI 8226 EC50, Table 2.
Setting [13] is: EC50 Chymotrypsin-like, Table 6, values in nM.
The mark [14] stands for this setting: EC50 values, chymotrypsin-like activity, summary of Table 6.
[15] abbreviates: Homo sapiens, HEK293, Table 5, values printed in μM, read-out: EC50, NF-κB-mediated luciferase reporter gene assay.
[16] abbreviates: Homo sapiens, U-266, 48 h, read-out: U266 EC50, Table 2.

Values joined by “and” are separate entries in the source; they are usually repeats but may differ in a detail not shown here. Equal entries are not always repeated. Where two headings read alike, the source gives them in different places.

For orientation: EC50 means the concentration at which the effect is half-maximal.

As to `CC12OC(=O)C1(C(=O)C1C=CCCC1)NC(=O)C2CCCl` (stereo not shown) [Formula II-13C], the EC50 is 8600 nM and 12800 nM in data set [1]; more than 20 µM in data set [2] (setting [8]); 7.6 µM and 8.8 µM in data set [4] (setting [9]); 1.4 to 10.6 µM in data set [4] (setting [10]). For the same compound, the “inhibition of the trypsin-like activity of the 20S proteasome, in words” value (“inhibition” below) in data set [3] is “able to inhibit”.

Consider `COC(=O)CCSC(=O)[C@]1([C@@H](O)[C@@H]2C=CCCC2)NC(=O)[C@H](CCCl)[C@]1(C)O` [Formula II-44], for which the concentration for a half-maximal effect (EC50) was 17 ± 4 nM in data set [5] (Homo sapiens, HEK293, read-out: EC50, NF-κB-mediated luciferase reporter gene assay, Table 5, values in nM); 55 nM and 54 nM in data set [1]; 12 nM in data set [6] (setting [11]); 8.8 nM in data set [6] (setting [12]); 1.4 µM in data set [2] (setting [8]); 0.956 to 8.7 µM in data set [2] (EC50 values, caspase-like activity, range in mixed units, summary of Table 6, range from nM to μM). In addition, the concentration for a half-maximal effect (EC50) in data set [4] (setting [13]) is 0.011 µM and 0.0087 µM; in data set [4] (setting [14]) it was 0.002 to 0.011 µM. Further, in data set [5], the “effect on luciferase activity upon TNF-α stimulation, in words” value is “dose-dependent decrease”. The “cytotoxicity against RPMI 8226, in words” value in data set [6] is recorded as “cytotoxic”. Further, in data set [3], the “inhibition” value is recorded as “able to inhibit”.

As for `C[C@@]12OC(=O)[C@]1(C(O)[C@@H]1C=CCCC1)NC(=O)[C@@H]2CCCl` (single isomer, unassigned) [Formula II-25], the 50% effective concentration (EC50) in data set [5] (setting [15]), in data set [7] (setting [16]) and in data set [6] (setting [11]) was more than 20000 nM in each case.

Regarding `C[C@@]12OC(=O)[C@]1([C@@H](O)[C@@H]1C=CCCC1)NC(=O)[C@H]2CCCl` [Formula II-26], the 50% effective concentration (EC50) in data set [5] (setting [15]) came out at 4300 nM; in data set [5] (Table 5, values in μM, read-out: EC50, NF-κB-mediated luciferase reporter gene assay) it was 4100 nM; in data set [7] (read-out: U266 EC50, Table 2), 829 nM; in data set [6] (setting [11]) it was 2230 nM; in data set [6] (setting [12]), 1610 nM. For the same compound, the “effect on luciferase activity upon TNF-α stimulation, in words” value in data set [5] is recorded as “dose-dependent decrease”. For the same compound, in data set [7] (from EC50 values), the “cytotoxicity against U266, in words” value is reported as “cytotoxic”. Moreover, in data set [6], the “cytotoxicity against RPMI 8226, in words” value is “cytotoxic”. Moreover, in data set [3], the “inhibition” value is given as “able to inhibit”.

On to `COC(=O)C(CSC(=O)[C@]1([C@@H](O)[C@@H]2C=CCCC2)NC(=O)[C@H](CCCl)[C@]1(C)O)NC(C)=O` (stereo partly shown) [Formula II-50], for which the concentration giving a half-maximal response (EC50) in data set [6] (setting [11]) was 10 nM. Further, in data set [6], the “cytotoxicity against RPMI 8226, in words” value is “cytotoxic”.

As for `CC[C@H]1C(=O)N[C@](C(=O)SCCC(=O)OC)([C@@H](O)[C@@H]2C=CCCC2)[C@@]1(C)O` [Formula II-47], the concentration giving a half-maximal response (EC50) is 8000 ± 3400 nM in data set [6] (setting [11]), 0.05 ± 0.01 µM in data set [4] (setting [13]) and 0.013 to 0.088 µM in data set [4] (setting [14]). For the same compound, in data set [6], the “cytotoxicity against RPMI 8226, in words” value is “cytotoxic”.

`C[C@@H]1C(=O)N[C@@]2([C@@H](O)[C@@H]3C=CCCC3)C(=O)O[C@@]12C` [Formula II-28]: the 50% effective concentration (EC50) in data set [5] (Homo sapiens, HEK293, read-out: EC50, NF-κB-mediated luciferase reporter gene assay, Table 5, values in μM) was more than 20000 nM; in data set [1] it was more than 20000 nM; in data set [7] (setting [16]), more than 20000 nM; in data set [6] (setting [11]), more than 20000 nM; in data set [2] (setting [8]) it was more than 20 µM; in data set [4] (setting [9]), 3.2 µM and 3.3 µM. The concentration giving a half-maximal response (EC50) in data set [4] (setting [10]) was 1.4 to 10.6 µM.

As to `C[C@@]12OC(=O)[C@]1([C@@H](O)[C@@H]1C=CCCC1)NC(=O)[C@@H]2CCN=C=S` [Formula II-38], the concentration for a half-maximal effect (EC50) in data set [6] (setting [11]) was 2600 nM; in data set [6] (setting [12]) it was 1800 nM; in data set [4] (setting [13]), 0.0034 ± 0.0002 µM; in data set [4] (setting [14]), 0.002 to 0.011 µM. In data set [6], the “cytotoxicity against RPMI 8226, in words” value is “cytotoxic”.

Consider `CC12OC(=O)C1(CC1C=CCCC1)NC(=O)C2CCCl` (stereo not shown) [Formula I-7], for which the 50% effective concentration (EC50) in data set [6] (setting [11]) is 240 nM; in data set [6] (setting [12]), 250 nM; in data set [4] (setting [13]), 0.052 ± 0.002 µM; in data set [4] (setting [14]), 0.013 to 0.088 µM. The “cytotoxicity against RPMI 8226, in words” value in data set [6] is reported as “cytotoxic”.

As to `C[C@@]12OC(=O)[C@]1(C(=O)C1=CC(O)CCC1)NC(=O)[C@]2(C)CCCl` (stereo partly shown) [Formula II-32], in data set [6] (setting [12]), the EC50 is more than 20000 nM.

With `CC[C@@H]1C(=O)N[C@@]2([C@@H](O)[C@@H]3C=CCCC3)C(=O)O[C@@]12C` [Formula II-27], the 50% effective concentration (EC50) in data set [5] (setting [15]) and in data set [1] was more than 20000 nM each time.

On to `C[C@@]12OC(=O)[C@]1(C(=O)C1=CC(O)CCC1)NC(=O)[C@]2(C)CCCl` (stereo partly shown) [Formula II-31], for which, in data set [6] (setting [11]), the EC50 is more than 20000 nM.

Source of the values: patent publication US7544814B2, “[3.2.0] Heterocyclic compounds and methods of using the same” (Nereus Pharmaceuticals, Inc., priority 2004, dated 2009).
